Legend:
[1] = test system: pancreatic carcinoma Panc-1 cell line; assay: CD44 Western blot in Panc-1 pancreatic carcinoma; assay type: cell-based; details: Panc-1, 96 h treatment; FIG. 18
Protocol: FIG. 18: Western blot, CD44 downregulation, Panc-1 pancreatic carcinoma was treated with ginkgolic and anacardic acids, 96 h.
Similar downregulation of stem cell marker CD44 was determined in pancreatic carcinoma Panc-1 cell line (FIG. 18) and undifferentiated thyroid cell line 8505c (FIG. 19) after 96 h treatment with SUMO inhibitors anacardic and ginkgolic acids. • Woodfield, G. W., Horan, A. D., Chen, Y. & Weigel, R. J. TFAP2C controls hormone response in breast cancer cells through multiple pathways of estrogen signaling. Cancer Res 67, 8439-8443 (2007). • Woodfield, G. W., Chen, Y., Bair, T. B., Domann, F. E. & Weigel, R. J. Identification of primary gene targets of TFAP2C in hormone responsive breast carcinoma cells. Genes Chromosomes Cancer 49, 948-962, doi:10.1002/gcc.20807 (2010). • Tan, S. K. et al. AP-2gamma regulates oestrogen receptor-mediated longrange chromatin interaction and gene transcription. Embo J 30, 2569-2581, doi:10.1038/emboj.2011.151 (2011). • Sorlie, T. et al. Gene expression patterns of breast carcinomas distinguish tumor subclasses with clinical implications. Proc Natl Acad Sci USA 98, 10869-10874. (2001). • Kao, J. et al. Molecular profiling of breast cancer cell lines defines relevant tumor models and provides a resource for cancer gene discovery. […]

IOWA-1T xenografts = IOWA-1T xenografts from pre-treated cells; assay type: in vivo; details: IOWA-1T cells pre-treated vs vehicle, nude mice; p=0.002; FIG. 8C
Description: FIGS. 8A-8D. SUMO Inhibitors Repressed Outgrowth of Xenografts. FIG. 8A. […] FIG. 8B. Tumor-free survival of nude mice (n=5 per group) inoculated with BT20 cells with animals gavaged with AA vs. vehicle. FIG. 8C. IOWA-1T cells were pre-treated with anacardic acid (AA) or vehicle and mice were followed until requiring euthanasia due to tumor size (Overall Survival). […] FIG. 8D. Nude mice were inoculated with 1×10^6, 5×10^5, or 2.5×10^5 IOWA-1T cells and animals were gavaged with either vehicle or AA; vehicle-gavaged mice developed tumors in 5, 10 and 12 days, respectively.
To address the effects of GA and AA on tumor initiation, BT20 cells were pretreated with GA or AA compared to vehicle prior to inoculation of xenografts in nude mice. As noted in FIG. 8A, pretreatment of the cells repressed the formation of tumor xenografts, whereas, vehicle treated cells formed xenografts with a median time of 8 weeks. […] We created a breast carcinoma cell line (IOWA-1T) from the basal tumor-derived cells used in FIG. 6A. The IOWA-1T cell line rapidly forms locally advanced tumors in nude mice. Identical experiments using the IOWA-1T basal cell line confirmed that either pre-treating the cancer cells or gavaging animals with AA repressed tumor initiation of xenografts (FIGS. 8C and 8D).
Statistical analysis was performed using the two-sided Student's T-test for continuous variables. […]

Compound	stem cell marker CD44 (Western blot) [1]	tumor formation (overall survival) (IOWA-1T xenografts)
CCCCCC/C=C\CCCCCCCc1cccc(O)c1C(=O)O [GA, (Z)-6-(Pentadec-8-enyl)-2-hydroxybenzoic acid]	downregulation	
CCCCCCCCCCCCCCCc1cccc(O)c1C(=O)O [AA, Anacardic acid (C15:0)]	downregulation	inhibited tumor formation

From patent US20160101076A1, “Use of Sumoylation Inhibitors for Treating Cancer” (priority 2013, published 2016)
